Laboratory results reported in ChEMBL document CHEMBL3992487 (Medchemcomm, 2016).

Key:
[1] = Dissociation constant, pKa of the compound; assay type: physicochemical
[2] = Intrinsic clearance in human hepatocytes assessed per million cells; assay type: ADME, cell-based, Hepatocyte; conditions: read-out: CLH
[3] = Intrinsic clearance in human liver microsomes; assay type: ADME, microsome; conditions: read-out: CLH
[4] = Oral bioavailability in rat; assay type: ADME, organism-based; conditions: in vivo
[5] = Clearance in rat blood; assay type: ADME

| SMILES | pKa [1] | hepatocyte CLint [2] | microsomal CLint [3] | bioavailability [4] | clearance [5] |
| --- | --- | --- | --- | --- | --- |
| C[C@](N)(CF)c1nc(-c2ccc(OC(F)(F)F)cc2)c[nH]1 | 6.4 | – | – | – | – |
| CC(C)(N)c1nc(-c2ccc(OC(F)(F)F)cc2)c[nH]1 | 7.9 | < 6 µL/min/1e6 cells | 8 µL/min/mg | – | – |

Further lines, results first:

| pKa [1] | hepatocyte CLint [2] | microsomal CLint [3] | bioavailability [4] | clearance [5] | SMILES |
| --- | --- | --- | --- | --- | --- |
| 7.1 | – | – | – | – | COC[C@@](C)(N)c1nc(-c2ccc(OC(F)(F)F)cc2)c[nH]1 |
| 6.4 | – | – | 49 to 52% | 5 mL/min/kg | NC1(Cc2nc(-c3ccc(OC(F)(F)F)cc3)c[nH]2)COC1 |
| 5.9 | – | – | – | – | NC(CF)(CF)c1nc(-c2ccc(OC(F)(F)F)cc2)c[nH]1 |
